Drawing on PubChem BioAssay (NCI), this text covers TGI for twelve compounds.

Common to all, as to assay: NCI anticancer screen, dose series, 48 h
Assay [1] has as its system TK-10 renal.
Assay [2] has as its system IGROV1 ovarian.
For assay [3], the system named is MALME-3M melanoma.
Assay [4] has as its system NCI-H460 lung.
Assay [5] relates to SF-268 CNS.
For assay [6], the system named is LOX IMVI melanoma.
For assay [7], the system named is SK-MEL-28 melanoma.
Assay [8] concerns MDA-N.
The subject of assay [9] is SNB-19 CNS.
The subject of assay [10] is SK-OV-3 ovarian.
Assay [11] has as its system CAKI-1 renal.
Assay [12] relates to U251 CNS.
Assay [13] concerns A549 NSCLC.
In assay [14] the test system is RXF 393 renal.
In assay [15] the test system is HT29 colon.
Assay [16] concerns 786-0 renal.
Assay [17] has as its system K-562 leukemia.
Assay [18] relates to UACC-62 melanoma.
Assay [19] relates to UACC-257 melanoma.
For assay [20], the system named is HOP-62 NSCLC.

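Growth conditions: 96-well plates. Treatment: test compound, 48 hours, 5 concentrations. Analysis: linear interpolation between bracketing concentrations; unreached endpoints set to highest concentration. TGI denotes the concentration required for complete inhibition of growth.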

With `Nc1[nH]c(=S)c2c(N)n[nH]c2c1C(=O)Nc1ccc(Cl)cc1`, the TGI is > 100 µM in [1]; > 100 µM in assay [2]; > 100 µM in assay [3]; > 100 µM in assay [4]; > 100 µM in [5]; 40.1 µM in assay [6]. Further, the TGI in assay [7], in [8], in [9], in [10], in assay [11] and in [12] was > 100 µM each time. Further, the TGI in assay [13], in assay [14], in [15], in assay [16], in assay [17] and in [18] was > 100 µM throughout. Besides, in [19], the TGI was > 100 µM.

Turning to `CCOC(=O)N1N(c2ccccc2)C(=O)C1(c1ccccc1)c1ccccc1`, the TGI in assay [1], in assay [2], in assay [3], in [5], in assay [6] and in assay [7] was > 100 µM each time. Also, the TGI was > 100 µM in assay [8]; > 100 µM in assay [9]; > 100 µM in [10]; > 100 µM in assay [11]; > 100 µM in assay [12]; 46 µM in [20]. The TGI in [13], in assay [14], in [15], in assay [16], in [17] and in assay [18] was > 100 µM each time. Further, the TGI in assay [19] was > 100 µM.

Turning to `NC(=O)C1CCCN1C(=O)N(CCCl)N=O` (stereo unspecified), the TGI in assay [1], in assay [2], in [3], in assay [4], in [5] and in assay [6] was > 100 µM throughout. Further, the TGI in assay [7], in [8], in assay [9], in assay [10], in assay [11] and in [12] was > 100 µM throughout. Moreover, the TGI in [20], in assay [13], in assay [15], in assay [16], in assay [17] and in [18] was > 100 µM each time. In assay [19], the TGI is > 100 µM.

As to `CCCCCCCCCCCCCCCCOc1ccc(/C=C/C2=[N+](CCCl)CCO2)cc1`, the TGI in [1], in assay [2], in assay [3], in assay [4], in [6] and in [7] was > 100 µM in each case. For the same compound, the TGI in [8], in assay [9], in assay [10], in assay [11], in assay [12] and in assay [20] was > 100 µM throughout. Besides, the TGI in [13], in assay [15], in [16], in assay [17], in assay [18] and in assay [19] was > 100 µM each time.

As for `COc1cc(C(=O)OCCn2[nH]c(-c3ccc(Cl)cc3)nc2=S)cc(OC)c1OC`, the TGI in [1], in assay [3], in assay [4], in assay [5], in [6] and in assay [7] was > 100 µM in each case. The TGI in [8], in [9], in assay [10], in [11], in assay [12] and in assay [20] was > 100 µM in each case. Moreover, the TGI in assay [13], in [14], in assay [15], in [16], in [17] and in assay [18] was > 100 µM throughout. Further, in assay [19], the TGI was > 100 µM.

On to `O=[N+]([O-])c1ccc(O)c(C=NCC2CCCN3CCCCC23)c1` (stereo unspecified), for which the TGI in [1] was > 100 µM; in [2], > 100 µM; in [3] it was > 100 µM; in [4], > 100 µM; in [5], 75.5 µM; in assay [6], > 100 µM. Besides, the TGI in [8], in assay [9], in [10], in assay [11], in assay [20] and in assay [13] was > 100 µM in each case. Besides, the TGI was 59.7 µM in assay [14]; > 100 µM in assay [15]; > 100 µM in assay [16]; 78.8 µM in assay [18]; > 100 µM in [19].

With `O=C1C2CC=CCC2C(=O)N1n1c(Cc2ccccc2)n[nH]c1=O` (stereo unspecified), the TGI in [1], in assay [2], in assay [3], in assay [4], in [5] and in assay [6] was > 100 µM throughout. The TGI in assay [8], in assay [9], in assay [10], in [11], in [12] and in [20] was > 100 µM throughout. For the same compound, the TGI in [13], in assay [14], in [15], in [16], in assay [17] and in assay [18] was > 100 µM each time. Moreover, the TGI in assay [19] is > 100 µM.

As for `Cc1nnc([C@@]2(C)CC[C@H]3[C@@H](CCC4=CC(=O)CC[C@@]43C)[C@@H]2CC#N)o1`, the TGI in assay [1], in assay [2], in [3], in [5], in assay [6] and in assay [8] was > 100 µM throughout. For the same compound, the TGI in assay [9], in [10], in [11], in assay [12], in [20] and in [13] was > 100 µM in each case. For the same compound, the TGI in [14], in [15], in assay [16], in assay [17], in [18] and in assay [19] was > 100 µM in each case.

For the compound `CC(C)(SCc1ccccc1)C(N)C(=O)O` (stereo unspecified), the TGI in assay [1], in [2], in assay [3], in [4], in assay [5] and in [6] was > 100 µM in each case. In addition, the TGI in assay [7], in assay [8], in [9], in assay [11], in [12] and in assay [20] was > 100 µM in each case. The TGI in assay [13], in [14], in assay [15], in assay [16], in assay [17] and in [18] was > 100 µM each time. Further, the TGI in assay [19] is > 100 µM.

For `CCOP(C)(=O)/C(Cc1ccc(OC)c(OC)c1)=N\O` (stereo unspecified), the TGI in assay [1], in assay [2], in [3], in [4], in [6] and in assay [7] was > 100 µM throughout. Besides, the TGI in assay [8], in assay [9], in assay [10], in [11], in assay [12] and in assay [20] was > 100 µM each time. Moreover, the TGI in assay [13], in [14], in [15], in assay [16], in assay [17] and in [18] was > 100 µM throughout.

For the compound `CCOC(=O)c1cn2c(ccc3sc4ccccc4c(=O)c32)n1`, the TGI in [1], in [2], in assay [3], in assay [4], in [5] and in assay [6] was > 100 µM in each case. For the same compound, the TGI in [7], in assay [8], in assay [9], in [11], in assay [12] and in assay [20] was > 100 µM each time. Also, the TGI in [13], in [14], in assay [15], in assay [16], in [17] and in assay [19] was > 100 µM in each case.

Take `CC(=O)OCCOCCN1CCN(c2c(O)c3c(c(O)c2Cl)C(=O)C=CC3=O)CC1`: the TGI stood at 1.62 µM in [1]; 3.04 µM in [2]; 0.96 µM in assay [3]; 3.62 µM in assay [5]; 1.66 µM in assay [6]; 2.22 µM in [7]. The TGI in assay [8] was found to be 1.79 µM; in [9] it was 6.82 µM; in [10] it was 6.06 µM; in assay [11] it was 0.878 µM; in assay [12], 4.1 µM; in assay [20], 7.1 µM. In addition, the TGI amounted to 3.94 µM in assay [13]; 1.93 µM in [14]; 2.17 µM in [15]; 0.913 µM in assay [16]; 2.81 µM in [18]; 2.38 µM in [19].
